Measured values taken from BindingDB's records for patent US11795173 (Xinthera, 2023).

Tests used:
[1] = target: Poly [ADP-ribose] polymerase 1 (Homo sapiens, UniProt P09874); experiment: Biochemical (FP) Assay
Protocol: (§1) PARP1 and PARP2 protein were expressed, purified, and diluted in assay buffer containing 50 mM Tris pH 8.0, 0.001% Triton X-100, 10 mM MgCI2, 150 mM NaCI to a final concentration of 20 nM.

[2] = target: Poly [ADP-ribose] polymerase 2 (Homo sapiens, UniProt Q9UGN5); experiment: Biochemical (FP) Assay
Protocol: as §1

Sequence of Poly [ADP-ribose] polymerase 1 (P09874 whole entry): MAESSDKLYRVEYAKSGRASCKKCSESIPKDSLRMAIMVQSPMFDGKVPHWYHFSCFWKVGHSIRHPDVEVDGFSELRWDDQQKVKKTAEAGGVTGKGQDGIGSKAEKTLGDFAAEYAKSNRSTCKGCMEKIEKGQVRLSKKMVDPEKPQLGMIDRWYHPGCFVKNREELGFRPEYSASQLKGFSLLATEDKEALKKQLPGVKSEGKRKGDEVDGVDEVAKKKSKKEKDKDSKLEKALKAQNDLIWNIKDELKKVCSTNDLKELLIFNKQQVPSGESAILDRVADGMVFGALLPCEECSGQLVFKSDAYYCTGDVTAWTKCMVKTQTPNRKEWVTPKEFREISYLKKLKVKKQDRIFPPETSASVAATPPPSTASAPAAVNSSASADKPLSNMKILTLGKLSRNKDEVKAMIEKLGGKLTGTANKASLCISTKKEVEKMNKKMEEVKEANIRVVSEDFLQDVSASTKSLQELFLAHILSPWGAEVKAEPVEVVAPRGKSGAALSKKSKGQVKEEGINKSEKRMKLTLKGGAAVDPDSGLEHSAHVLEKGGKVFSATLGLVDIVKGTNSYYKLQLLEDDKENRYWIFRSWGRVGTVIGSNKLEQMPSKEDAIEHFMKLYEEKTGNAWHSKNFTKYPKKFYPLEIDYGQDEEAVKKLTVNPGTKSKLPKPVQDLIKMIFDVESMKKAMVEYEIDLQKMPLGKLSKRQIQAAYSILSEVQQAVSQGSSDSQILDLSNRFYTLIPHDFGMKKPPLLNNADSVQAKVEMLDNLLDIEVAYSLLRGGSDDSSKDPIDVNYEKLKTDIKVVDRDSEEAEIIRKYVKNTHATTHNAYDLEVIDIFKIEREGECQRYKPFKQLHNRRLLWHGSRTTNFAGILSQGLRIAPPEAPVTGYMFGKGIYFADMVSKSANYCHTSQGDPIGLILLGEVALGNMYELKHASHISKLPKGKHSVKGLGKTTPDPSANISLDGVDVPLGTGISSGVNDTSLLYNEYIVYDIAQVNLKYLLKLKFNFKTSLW
Sequence of Poly [ADP-ribose] polymerase 2 (Q9UGN5 whole entry): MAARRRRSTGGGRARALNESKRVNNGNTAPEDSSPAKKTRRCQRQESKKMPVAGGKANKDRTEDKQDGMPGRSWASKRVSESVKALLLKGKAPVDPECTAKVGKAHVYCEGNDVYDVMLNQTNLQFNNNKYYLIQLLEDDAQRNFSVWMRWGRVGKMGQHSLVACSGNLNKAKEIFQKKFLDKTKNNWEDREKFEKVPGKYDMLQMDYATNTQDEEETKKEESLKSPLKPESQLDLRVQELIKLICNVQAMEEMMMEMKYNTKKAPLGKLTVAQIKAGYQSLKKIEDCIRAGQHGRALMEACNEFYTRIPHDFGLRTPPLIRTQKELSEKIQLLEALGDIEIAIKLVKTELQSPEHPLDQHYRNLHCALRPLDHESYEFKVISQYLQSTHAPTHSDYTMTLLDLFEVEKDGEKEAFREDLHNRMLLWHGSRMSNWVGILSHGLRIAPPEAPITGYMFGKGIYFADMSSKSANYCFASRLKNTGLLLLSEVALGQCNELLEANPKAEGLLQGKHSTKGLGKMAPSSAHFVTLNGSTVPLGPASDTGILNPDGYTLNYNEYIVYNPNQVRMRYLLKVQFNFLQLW

Compound	IC50 [1] [nM]	IC50 [2] [nM]
CNC(=O)c1ccc(N2CCN(Cc3ccc4c5c(c(=O)[nH]c4c3)CCO5)CC2)c(Cl)n1 [US11795173, Comp. Ex. 2]	4	> 100000
CNC(=O)c1ccc(N2CCN(Cc3cc(F)c4c5c(c(=O)[nH]c4c3)COC5)CC2)c(F)n1 [US11795173, Comp. Ex. 3]	4.3	> 100000
